# Assay results taken from patent US7378513B2, “Isolated proteins from a traditional Chinese medicine Yuzhu and use thereof” (priority 2005, dated 2008).
# Where two headings read alike, the source gives them in different places.
# Legend:
# HSV-2 = test: Cytopathic effect (CPE) inhibition assay, HSV-2; assay type: cell-based, Herpes Simplex Virus; conditions: Human alphaherpesvirus 2; CPE method, Vero cells
# HSV-1 (15577) [1] = test: microbe, parasite or virus in culture; assay type: cell-based, Herpes Simplex Virus; conditions: Human alphaherpesvirus 1, CPE method
# HSV-1 (15577) [2] = test: microbe, parasite or virus in culture; assay type: cell-based, Herpes Simplex Virus; conditions: Human alphaherpesvirus 1; plaque reduction assay, Vero cells; M2 value is the average of two
# rabbit erythrocytes = test: Hemagglutinating test, rabbit red blood cells; assay type: cell-based
# Procedure: The assay was carried out in a U-shape microtiter plate as described previously (Ooi et al., 1998). […] Specific hemagglutinating activity was expressed as the number of hemagglutinating units per mg protein in Table 3. Rabbit, human (ABO groups), and chicken red blood cells were used for hemagglutinating test. Concanavalin A (ConA) was used as a positive control, and phosphate-buffered saline (PBS, 0.1M, pH7.4) as a negative control. A serial twofold dilution of the lectin solution (in PBS) in microtitre U-plates (50 μl) was mixed with 50 μl of a 2% suspension of red blood cells in PBS at room temperature. The results were read after about one hour when the blank (with red blood cells and buffer only) had fully sedimented.
# RSV (long strain) [3] = test: microbe, parasite or virus in culture; assay type: cell-based; conditions: human respiratory syncytial virus; plaque reduction assay
# RSV (long strain) [4] = test: microbe, parasite or virus in culture; assay type: cell-based, respiratory syncytial virus; conditions: CPE method; for IC50: human respiratory syncytial virus
compound,measurement,setting,value
Nc1nc2c(ncn2COCCO)c(=O)[nH]1 [Acyclovir],IC50,HSV-2,0.35 µg/mL
same,IC50,"HSV-1 (15577) [1]; Vero cells, Table 4a Yuzhu (Dried Herbs)",0.25 µg/mL
same,IC50,HSV-1 (15577) [1]; Table 4b Yuzhu (Fresh Herbs),0.25 µg/mL
same,IC50,HSV-1 (15577) [2],0.15 µg/mL
Concanavalin A [ConA],Specific hemagglutinating activity,rabbit erythrocytes,"12,800 U/mg protein"
NC(=O)c1ncn([C@@H]2O[C@H](CO)[C@@H](O)[C@H]2O)n1 [Ribavirin],IC50,RSV (long strain) [3],3.3 µg/mL
same,IC50 RSV (long strain),"RSV (long strain) [4]; Hep2 cells, Table 4a Yuzhu (Dried Herbs), listed as Ribvirin",(6.3) μg/ml
same,IC50,"RSV (long strain) [4]; HEp-2, Hep2 cells, Table 4a Yuzhu (Dried Herbs), read-out: IC50 RSV (long strain)",6.3 µg/mL
same,IC50,"RSV (long strain) [4]; Table 4b Yuzhu (Fresh Herbs), read-out: IC50 RSV",6.3 µg/mL
